Results from patent US8481028B2, “Compositions for preparing a coffee beverage comprising hydrolysed chlorogenic acid” (Nestec S.A., priority 2008, dated 2013).

Columns and labels:
[1] = system: Lactobacillus johnsonii (CNCM I-1225) fresh cells; experiment: Treatment of NESCAFE PROTECT with L. johnsonii fresh cells, HPLC of chlorogenic and phenolic acids
Method: (§1) Cells of L. johnsonii (CNCM I-1225) were grown (7.0 E08 cfu/ml) and centrifuged (5000 g, 10 min), the pellets were resuspended in phosphate buffer (50 mM, pH 7.0) at a concentration of 0.61 g/ml. […] Samples were withdrawn at different reaction times, centrifuged (3000 g, 5 min) and filtered through 0.45 μm pore size syringe filters (Millipore SLHA 025 BS) and analysed by HPLC.
A reaction control was run in parallel under the same reaction conditions but without bacteria.
(§2) Coffee samples were diluted to 1% w/w and analyzed by RP-HPLC on a CC 250/4 Nucleosil 100-5-C18 column (Macherey-Nagel). The eluent system was Millipore water, 0.1% TFA and CH3CN at a flow rate of 1 mL/min. The method allowed the simultaneous determination of caffeoyl quinic acids (CQA), feruloyl quinic acids (FQA), di-caffeoyl quinic acids (diCQA), feruloyl quinic acid-lactones, caffeic acid (CA) and ferulic acid (FA) (absorbance at 325 nm) using external standard calibration curves. Results were expressed relative to the reference at time 0 (t0) or to the reference at the same time without bacteria.

[2] = system: Lactobacillus johnsonii (CNCM I-1225) extract (lysed cells); experiment: Treatment of NESCAFE PROTECT with L. johnsonii extract (lysed cells), HPLC; type: biochemical
Method: as §1, with “g/ml. The cells were then lysed using the glass-beads method. 600 μl of cells preparation were put in screw-cap tubes and 600 μl of glass-beads were added at 0° C. The tubes were then put into a Mini-Beadbeater for 1 min of intense shaking, cooled in ice, and put another 1 min in the Mini-Beadbeater.” for “g/ml.”, “min),” for “min) and”
as §2

[3] = system: spray-dried preparation of Lactobacillus johnsonii (CNCM I-1225); experiment: Treatment of NESCAFE PROTECT with spray-dried preparation of L. johnsonii, HPLC
Method: (§3) To this solution, 10 mg of a spray-dried preparation of Lactobacillus johnsonii (CNCM I-1225) (3.3 E9 cfu/g) were added. The mixture was then incubated at 37° C. and samples were withdrawn at different reaction times. After centrifugation (3000 g, 5 min) and filtration (0.45 μm pore size syringe filters, Millipore SLHA 025 BS) the samples were analysed by HPLC.
as §2

[4] = system: spray-dried preparation of Lactobacillus johnsonii (CNCM I-1225); experiment: Treatment of green coffee extract with spray-dried preparation of L. johnsonii, HPLC
Method: as §3, with “30 mg of a dried green coffee extract was dissolved in 1 ml phosphate buffer (50 mM, pH 7.0) or in 1 ml water. To” for “To”, “johnsonii” for “johnsonii (CNCM I-1225)”, “cfu/g) was” for “cfu/g) were”
as §2

[5] = system: concentrated preparation of Lactobacillus johnsonii (CNCM I-1225); experiment: Treatment of NESCAFE with concentrated preparation of L. johnsonii, HPLC
Method: 400 mg of NESCAFE SPECIAL FILTRE® (a dried extract of roasted coffee beans) were dissolved in 1 ml of boiling water and the solution was cooled to 37° C. at room temperature. To 250 μl of this coffee solution, different amounts of concentrated preparation of Lactobacillus johnsonii (50 μl, 100 μl, 350 μl, 750 μl) were added and the volume was adjusted to 1 ml with water. The mixtures were than incubated at 37° C. for 2 h and 4 h. After centrifugation (3000 g, 5 min) and filtration the samples were analysed by HPLC.
as §2

[6] = system: Lactobacillus johnsonii (CNCM I-1225); experiment: Treatment of coffee extracts with bacteria cells (L. johnsonii), HPLC
Method: as §2
(§4) Tested strains were harvested (centrifugation at 5000 g for 10 min) after having well reached stationary phase, corresponding to 16 hours of incubation in culture medium at 37° C. in anaerobic atmosphere without agitation. For a first activation of the strains, frozen stock cultures were inoculated in fresh media and grown overnight. This pre-culture was used to inoculate the culture.
(§5) After culture of bacteria and centrifugation, the pellets were resuspended in phosphate buffer (pH 7.0) at a concentration of 0.61 g/ml. To 200 μl of this cells preparation, 800 μl of a coffee solution (3%) was added and the mixture was incubated at 37° C. for 4 h, 16 h and 24 h.

[7] = system: Bifidobacterium lactis BB12 (CNCM I-3446); experiment: Treatment of coffee extracts with bacteria cells (B. lactis), HPLC
Method: as §2, §4, §5

[8] = system: Chlorogenate esterase; experiment: Incubation of coffee extracts with chlorogenate esterase, HPLC; type: biochemical, Aspergillus japonicus
Method: as §2
Chlorogenate esterase (24 U/g), derived from Aspergillus japonicus (Kikkoman, Japan). Tannase from Aspergillus oryzae (Kikkoman, Japan) Preparation of Bacteria Cells
A solution of chlorogenate esterase (25 mg) in 200 μl phosphate buffer (pH 7.0) was added to 800 μl of a coffee solution (3%). The mixture was then incubated at 37° C. for 4 h, 16 h and 24 h. After reaction time, the enzymatic activity was stopped by heat treatment (3 min, 90° C.) and the mixture was filtered before analysis.

[9] = NESCAFE PROTECT + Lactobacillus johnsonii, 4 h
[10] = NESCAFE PROTECT + Lactobacillus johnsonii, 16 h
[11] = NESCAFE PROTECT + Lactobacillus johnsonii, 24 h
[12] = green coffee extract + Lactobacillus johnsonii, 4 h
[13] = green coffee extract + Lactobacillus johnsonii, 16 h
[14] = green coffee extract + Lactobacillus johnsonii, 24 h
[15] = NESCAFE PROTECT + Bifidobacterium lactis, 4 h
[16] = NESCAFE PROTECT + Bifidobacterium lactis, 16 h
[17] = NESCAFE PROTECT + Bifidobacterium lactis, 24 h
[18] = green coffee extract + Bifidobacterium lactis, 4 h
[19] = green coffee extract + Bifidobacterium lactis, 16 h
[20] = green coffee extract + Bifidobacterium lactis, 24 h
[21] = NESCAFE PROTECT + Chlorogenate esterase, 4 h
[22] = NESCAFE PROTECT + Chlorogenate esterase, 16 h
[23] = NESCAFE PROTECT + Chlorogenate esterase, 24 h
[24] = green coffee extract + Chlorogenate esterase, 4 h
[25] = green coffee extract + Chlorogenate esterase, 16 h
[26] = green coffee extract + Chlorogenate esterase, 24 h

Substance: feruloyl quinic acids [FQA]
- Concentration in % relative to untreated reference at t = 0 ([1]; 6 h, cell preparation 100 uL): 42%
- Concentration in % relative to untreated reference at t = 0 ([1]; 6 h, cell preparation 350 uL): 17%
- Concentration in % relative to untreated reference at t = 0 ([1]; 6 h, cell preparation 750 uL): 8%
- Concentration in % relative to untreated reference at t = 0 ([1]; 24 h, cell preparation 100 uL): 17%
- Concentration in % relative to untreated reference at t = 0 ([1]; 24 h, cell preparation 350 uL): 4%
- Concentration in % relative to untreated reference at t = 0 ([1]; 24 h, cell preparation 750 uL): 0%
- Concentration in % relative to untreated reference at t = 0 ([2]; 2 h, cell preparation 100.0 uL): 36%
- Concentration in % relative to untreated reference at t = 0 ([2]; 2 h, cell preparation 350.0 uL): 15%
- Concentration in % relative to untreated reference at t = 0 ([2]; 6 h, cell preparation 100.0 uL): 18%
- Concentration in % relative to untreated reference at t = 0 ([2]; 6 h, cell preparation 350.0 uL): 11%
- % relative to untreated control at t = 0 ([3]; 2 h): 82%
- % relative to untreated control at t = 0 ([3]; 6 h): 60%
- % relative to untreated control at t = 0 ([3]; 24 h): 34%
- % relative to untreated control at t = 0 ([4]; 4 h): 79%
- % relative to untreated control at t = 0 ([4]; 6 h): 71%
- % relative to untreated control at t = 0 ([4]; 16 h): 48%
- % relative to untreated control at t = 0 ([4]; 24 h): 52%
- % relative to untreated control at t = 0 ([5]; cell amount 50 μL/1 mL, 2 h): 90%
- % relative to untreated control at t = 0 ([5]; cell amount 50 μL/1 mL, 4 h): 89%
- % relative to untreated control at t = 0 ([5]; cell amount 100 μL/1 mL, 2 h): 82%
- % relative to untreated control at t = 0 ([5]; cell amount 100 μL/1 mL, 4 h): 74%
- % relative to untreated control at t = 0 ([5]; cell amount 350 μL/1 mL, 2 h): 61%
- % relative to untreated control at t = 0 ([5]; cell amount 350 μL/1 mL, 4 h): 53%
- % relative to untreated control at t = 0 ([5]; cell amount 750 μL/1 mL, 2 h): 41%
- % relative to untreated control at t = 0 ([5]; cell amount 750 μL/1 mL, 4 h): 37%
- % relative to untreated control at t = 0 [6, 9]: 42%
- % relative to untreated control at t = 0 [6, 10]: 21%
- % relative to untreated control at t = 0 [6, 11]: 20%
- % relative to untreated control at t = 0 [6, 12]: 49%
- % relative to untreated control at t = 0 [6, 13]: 15%
- % relative to untreated control at t = 0 [6, 14]: 15%
- % relative to untreated control at t = 0 [7, 15]: 54%
- % relative to untreated control at t = 0 [7, 16]: 23%
- % relative to untreated control at t = 0 [7, 17]: 20%
- % relative to untreated control at t = 0 [7, 18]: 33%
- % relative to untreated control at t = 0 [7, 19]: 12%
- % relative to untreated control at t = 0 [7, 20]: 6%
- % relative to untreated control at t = 0 [8, 21]: 54%
- % relative to untreated control at t = 0 [8, 22]: 15%
- % relative to untreated control at t = 0 [8, 23]: 14%
- % relative to untreated control at t = 0 [8, 24]: 73%
- % relative to untreated control at t = 0 [8, 25]: 24%
- % relative to untreated control at t = 0 [8, 26]: 23%

Substance: di-caffeoyl quinic acids [diCQA]
- Concentration in % relative to untreated reference at t = 0 ([1]; 6 h, cell preparation 100 uL): 23%
- Concentration in % relative to untreated reference at t = 0 ([1]; 6 h, cell preparation 350 uL): 0%
- Concentration in % relative to untreated reference at t = 0 ([1]; 6 h, cell preparation 750 uL): 0%
- Concentration in % relative to untreated reference at t = 0 ([1]; 24 h, cell preparation 100 uL): 2%
- Concentration in % relative to untreated reference at t = 0 ([1]; 24 h, cell preparation 350 uL): 0%
- Concentration in % relative to untreated reference at t = 0 ([1]; 24 h, cell preparation 750 uL): 0%
- Concentration in % relative to untreated reference at t = 0 ([2]; 2 h, cell preparation 100.0 uL): 8%
- Concentration in % relative to untreated reference at t = 0 ([2]; 2 h, cell preparation 350.0 uL): 1%
- Concentration in % relative to untreated reference at t = 0 ([2]; 6 h, cell preparation 100.0 uL): 1%
- Concentration in % relative to untreated reference at t = 0 ([2]; 6 h, cell preparation 350.0 uL): 1%
- % relative to untreated control at t = 0 ([4]; 4 h): 67%
- % relative to untreated control at t = 0 ([4]; 6 h): 53%
- % relative to untreated control at t = 0 ([4]; 16 h): 32%
- % relative to untreated control at t = 0 ([4]; 24 h): 20%
- % relative to untreated control at t = 0 ([5]; cell amount 50 μL/1 mL, 2 h): 86%
- % relative to untreated control at t = 0 ([5]; cell amount 50 μL/1 mL, 4 h): 75%
- % relative to untreated control at t = 0 ([5]; cell amount 100 μL/1 mL, 2 h): 68%
- % relative to untreated control at t = 0 ([5]; cell amount 100 μL/1 mL, 4 h): 56%
- % relative to untreated control at t = 0 ([5]; cell amount 350 μL/1 mL, 2 h): 23%
- % relative to untreated control at t = 0 ([5]; cell amount 350 μL/1 mL, 4 h): 15%
- % relative to untreated control at t = 0 ([5]; cell amount 750 μL/1 mL, 2 h): 6%
- % relative to untreated control at t = 0 ([5]; cell amount 750 μL/1 mL, 4 h): 6%
- % relative to untreated control at t = 0 [6, 9]: 18%
- % relative to untreated control at t = 0 [6, 10]: 2%
- % relative to untreated control at t = 0 [6, 11]: 2%
- % relative to untreated control at t = 0 [6, 12]: 35%
- % relative to untreated control at t = 0 [6, 13]: 6%
- % relative to untreated control at t = 0 [6, 14]: 3%
- % relative to untreated control at t = 0 [7, 15]: 91%
- % relative to untreated control at t = 0 [7, 16]: 72%
- % relative to untreated control at t = 0 [7, 17]: 67%
- % relative to untreated control at t = 0 [7, 18]: 85%
- % relative to untreated control at t = 0 [7, 19]: 70%
- % relative to untreated control at t = 0 [7, 20]: 64%
- % relative to untreated control at t = 0 [8, 21]: 0%
- % relative to untreated control at t = 0 [8, 22]: 0%
- % relative to untreated control at t = 0 [8, 23]: 1%
- % relative to untreated control at t = 0 [8, 24]: 0%
- % relative to untreated control at t = 0 [8, 25]: 0%
- % relative to untreated control at t = 0 [8, 26]: 0%
